According to patent publication US8263353B2, “Method for detecting autoprocessed, secreted PCSK9” (Merck Sharp & Dohme Corp., priority 2007, dated 2012):
Blank lines part the entries; values can stand above or below the substance they belong to.

Legend:
Format in all cases: cell-based
[1] = system: diI-LDL uptake in HEK293 cells; assay: DiI-LDL uptake assay (PCSK9-dependent LDL-uptake assay)
Protocol: Blood for LDL isolation was obtained from healthy human volunteers. Blood (200 ml) was collected in EDTA tubes and spun at 15,000 rpm for 15 min at 4° C. Plasma density was adjusted to 1.02 g/ml with sodium bromide and the tubes were centrifuged at 45,000 rpm in Ti70 ultracentrifuge rotor for 20 hr. The VLDL layer was removed and the bottom layer was recalibrated to a density of 1.063 g/ml with sodium bromide. The tubes were again centrifuged at 45,000 rpm in Ti70 rotor for 72 hr. The LDL layer was removed and dialysed against PBS pH 7.4 and 0.5 M EDTA. The final protein concentration was determined using a BCA Protein Assay Kit. LDL was labeled with a fluorescent DiI particle (Molecular Probes). A stock solution containing 3 mg of DiI dissolved in 1 ml of dimethyl sulfoxide (DMSO) was prepared. This stock solution of D11 was added to LDL at a final concentration of 135 μg of DiI to 1 ml of LDL. The labeling reaction was incubated at 37° C. for 24 hr in the dark followed by LDL isolation as mentioned above.
HEK293 cells stably expressing the vector pcDNA3.1 alone were plated in a 96-well poly D-lysine coated plate (Corning) at a density of 30,000 cells/well in 1×DMEM, containing 1 mg/ml G418 and 10% FBS (HEK293). A similar plating protocol was followed for HepG2 and CHO cells except that G418 was not added to the media. After 24 hr, the media was switched to DMEM media lacking serum. After 18 hr, the media was removed and the cells were washed with OptiMEM (Invitrogen). Purified PCSK9 protein was added to the cells in 100 μl of mixture B (DMEM containing 10% lipoprotein deficient serum (LPDS) (Intracel) and 10 μg/ml dI-LDL). To measure non-specific binding, 100 μl of mixture B that also contained 400 μg/ml unlabeled LDL was added to control wells. The plates were incubated at 37° C. for 6.5 hours and the cells were washed quickly in Tris-buffered saline (TBS, Biorad) containing 2 mg/ml Bovine Serum Albumin (BSA) (Sigma). The wash step was repeated, but this time the wash buffer was incubated for 2 min with the cells. Last, the cells were quickly washed twice with TBS (without BSA) and lysed in 100 μl RIPA buffer. The lysate was transferred to a 96-well black plate (Thermo Labsystem) and fluorescence was measured using a SpectraMAX tunable spectrofluorometer (Molecular Devices) at an excitation wavelength of 520 nm and an emission wavelength of […] Total cellular protein was measured in each well using a BCA Protein Assay and the fluorescence units were normalized to total protein. The amount of specific LDL uptake (specific counts) is the difference between the total counts measured (in the absence of unlabeled LDL) and the counts measured in the presence of an excess of unlabeled LDL (non-specific background fluorescence). […]

PCSK9 processing [2] = molecular target: T1, PCSK9 processing (Homo sapiens, UniProt Q8NBP7, D186A/G670E/V474I); assay: Western blot of HEK293 cells stably expressing PCSK9 mutant D186A; conditions: HEK293 stable cell line; FIG. 11A
T1 construct: expressed in transfected cells
T1 sequence (Q8NBP7 31-692 D186A/V474I/G670E): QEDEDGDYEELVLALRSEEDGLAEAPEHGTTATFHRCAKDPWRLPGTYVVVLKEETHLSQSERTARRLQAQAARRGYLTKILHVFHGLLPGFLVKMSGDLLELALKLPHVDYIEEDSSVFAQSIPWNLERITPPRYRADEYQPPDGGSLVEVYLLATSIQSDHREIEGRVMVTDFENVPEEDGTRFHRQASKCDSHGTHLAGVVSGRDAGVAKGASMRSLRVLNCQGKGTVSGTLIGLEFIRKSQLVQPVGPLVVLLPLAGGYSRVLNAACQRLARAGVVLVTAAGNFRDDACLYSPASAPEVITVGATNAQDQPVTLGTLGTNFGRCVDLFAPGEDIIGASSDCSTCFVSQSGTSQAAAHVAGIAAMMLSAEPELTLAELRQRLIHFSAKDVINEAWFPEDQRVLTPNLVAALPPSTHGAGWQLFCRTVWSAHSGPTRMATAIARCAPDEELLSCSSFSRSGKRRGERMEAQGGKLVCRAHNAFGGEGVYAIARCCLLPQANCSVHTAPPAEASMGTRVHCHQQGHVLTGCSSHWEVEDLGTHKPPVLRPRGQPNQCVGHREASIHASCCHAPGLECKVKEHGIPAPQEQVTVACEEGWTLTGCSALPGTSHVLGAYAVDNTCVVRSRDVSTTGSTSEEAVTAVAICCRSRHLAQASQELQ
Protocol: (§1) Cells carrying vector alone (pcDNA3.1) or vector plus PCSK9 (PCSK9-152 FLAG-V5/His and PCSK9-152 FLAG-V5/His-S386A) were plated in 1×DMEM containing 1 mg/ml G418 supplemented with 10% FBS. After 24 hr, the media was switched to DMEM media lacking serum. After an additional 6 hr, the media was removed and the cells were lysed in RIPA buffer (TEKNOVA) plus Complete protease inhibitor cocktail (Roche). Protein concentration was assayed with BCA Protein Assay Kit (Pierce). […] of proteins from lysate or 15 μl media were loaded on 10-20% Tris-Glycine gels (Invitrogen). Following transfer, membranes were successively incubated with 1:5000 anti-VS (Invitrogen), 1:3000 anti-FLAG ml (Sigma-Aldrich Co.) or 1:3000 anti_FLAG m2 (Sigma-Aldrich Co.) primary antibody and 1:3000 anti-mouse IgG (H+L) alkaline phosphatase conjugate (Promega). Bands were subsequently detected using a 1-step NBT/BCIP Kit (Pierce) according to manufacturer's instructions.
420:55-67. […] Media from the D186A stable cell line was purified using column chromatography (as described) to obtain both purified nonprocessed and processed D186A (FIG. 11B). Similar to the WT PCSK9 protein processed D186A retains the pro domain after several column purifications (FIG. 11B).

PCSK9 processing [3] = molecular target: T2, PCSK9 processing (Homo sapiens, UniProt Q8NBP7, G670E/V474I); assay: Co-transfection of PCSK9 pro domain with wild type V5/His-tagged PCSK9, western blot of cell lysate and media; conditions: co-transfected pro domain
T2 construct: expressed in transfected cells
T2 sequence (Q8NBP7 31-692 V474I/G670E): as the sequence (Q8NBP7 31-692 D186A/V474I/G670E) above, with A156D counted along it
Protocol: FIGS. 10A and 10B illustrate inhibition of PSCK9 processing through co-transfection of PCSK9 pro domain. The figure illustrates the inhibition of PCSK9 processing is similar whether the domain is untagged, or tagged at the N-terminus with either an HA or His tag. […] The lanes are in order wild-type; wild-type; pro domain; HA pro domain; His pro domain.
as §1, with “instructions. […]” for “instructions.”

Substance: processed D186A: Purified secreted, autoprocessed form of human PCSK9 catalytic-triad mutant D186A, retaining the pro domain
fold weaker in potency than WT PCSK9 ([1]; HEK293 cells): approximately 4 fold | EC50 ([1]; HEK293 cells, purified protein, FIG. 11C, read-out: EC50 (amount of PCSK9 protein required for 50% inhibition of diI-LDL uptake)): 189 nM

extent of processing (PCSK9 processing [2]): 10-20%
Substance: D186A PCSK9 mutant: Human PCSK9 single catalytic-triad mutant D186A stably expressed in HEK293 cells

amount of processed PCSK9 in cell lysate compared to cells expressing wild type alone (PCSK9 processing [3]; cell lysate, FIG. 10A): reduced | processed PCSK9 detected in the media (PCSK9 processing [3]; media, FIG. 10B): less processed PCSK9 was detected
Substance: PCSK9 pro domain: Human PCSK9 pro domain (SEQ ID NO: 20, residues 31-152) expressed from co-transfected nucleic acid

Substance: nonprocessed D186A: Purified secreted, nonprocessed form of human PCSK9 mutant D186A (SEQ ID NO: 34)
fold less active than processed PCSK9 in PCSK9-dependent LDL uptake ([1]; FIG. 11C): ~20 fold | activity in PCSK9-dependent LDL-uptake assay ([1]; HEK293 cells, purified protein, FIG. 11C): only weakly active
